Results reported in publication PMC5844530, “Fosmetpantotenate (RE-024), a phosphopantothenate replacement therapy for pantothenate kinase-associated neurodegeneration: Mechanism of action and efficacy in nonclinical models” (PLoS ONE, 2018).
Several values for one entry are separate records, joined by “and”; a condition that tells them apart may be missing. Identical values can stand only once.

Assays:
[1] = Metabolic stability in mouse whole blood; type: in vitro ADME; settings: for Percentage Remaining: mouse whole blood, replicates 1 and 2, listed as Fosmetpantotenate Total
Method: (§1) Metabolic stability in blood and liver microsomes: Fosmetpantotenate or its individual diastereomers (5 μM, n = 2, 37°C) were incubated in mouse, rat, cynomolgus monkey, and human whole blood. Samples (50 μL) were taken at 0, 5, 15, 30, and 60 min. Incubations of fosmetpantotenate or its individual diastereomers (1 μM, n = 2, 37°C) in pooled liver microsomes (0.25 mg protein/mL in 0.1 M phosphate buffer pH 7.4) were initiated with the addition of nicotinamide adenine dinucleotide phosphate (NADPH; 1 mM). Aliquots (100 μL) were obtained at 0, 5, 10, 20, and 40 min and added to 150 μL of 0.1% formic acid in acetonitrile-containing carbamazepine (0.5 μM) as an analytical internal standard, centrifuged, and the supernatants analyzed by LC-MS/MS.
(§2) Bioanalysis for determinations of analyte stability: Samples were analyzed using a benchtop tandem quadrupole detector (TQD) mass spectrometer (Waters Ltd, Centennial Park, Hertfordshire). […] Suitable retention and peak shape with separation of the 2 diastereomers were obtained. The chromatography column was a Phenomenex-Kinetex XB C18 (2.10 x 50 mm; 2.6 μm), with a 0.7 mL/min flow rate and a 2 μL injection volume. […] The gradient was initiated with 20% B and increased linearly, reaching 40% B at 0.6 min, followed by 50% B at 0.8 min and by 95% B at 0.9 min. Conditions were kept isocratic through 1.2 min, returned to starting conditions (20% B) at 1.25 min, and maintained at 20% B through 1.5 min before the next injection. Since fosmetpantotenate is a mixture of diastereomers which are resolved chromatographically, the fosmetpantotenate MRM area corresponds to the sum of the MRM areas of the individual diastereomers.
(§3) The percent of compound remaining was determined from the MRM area response in each sample relative to that in the T = 0 samples (normalized for internal standard). Natural log plots of the percent compound remaining over time were used to determine the t½ of compound disappearance using the relationship t½ = -0.693/λ, where λ is the slope of the natural logarithm of the percent compound remaining vs time curve.

[2] = Metabolic stability in monkey whole blood; type: in vitro ADME, cynomolgus monkey; settings: for Percentage Remaining: monkey whole blood, replicates 1 and 2, listed as Fosmetpantotenate Total
Method: as §1, with “Samples (50 μL) were taken at 0, 5, 15, 30, and 60 min.” left out
as §2, §3

[3] = Metabolic stability in human liver microsomes; type: in vitro ADME; settings: pooled liver microsomes
Method: as §1
Bioanalysis for determinations of analyte stability: Samples were analyzed using a benchtop tandem quadrupole detector (TQD) mass spectrometer (Waters Ltd, Centennial Park, Hertfordshire). […] Suitable retention and peak shape with separation of the 2 diastereomers were obtained. The chromatography column was a Phenomenex-Kinetex XB C18 (2.10 x 50 mm; 2.6 μm), with a 0.7 mL/min flow rate and a 2 μL injection volume. […]
The percent of compound remaining was determined from the MRM area response in each sample relative to that in the T = 0 samples (normalized for internal standard). […]

[4] = tested on: porcine brain endothelial cell (PBEC) co-culture model; assay: In vitro blood-brain barrier permeability (PBEC/rat astrocyte co-culture); settings: in words
Method: Permeability studies were performed after 2 days of co-culture with rat astrocytes. […] In each filter used for transport, a paracellular marker was included as an internal control to monitor the integrity of the cell monolayer. The day of the experiment, culture medium was removed and cells on Transwell inserts were pre-incubated for 30 min with Hank's Balanced Salt Solution (HBSS) containing 20 mM Hepes pH 7.4 and 0.1% bovine serum albumin (BSA). […] Aliquots from the basal compartment were taken after 1 h; fluorescence was measured using a fluorescence detector. The permeability coefficient of the total system was calculated as follows: P[cm/s]=Vd×ΔMr/A×Md×Δt Where:
To correct for the contribution of the porous polycarbonate membrane of the filter in the absence of cells, the permeability was also determined for the cell-free system. Contribution of the endothelial cell monolayer to the permeability of the cell and filter system was determined by the following equation: 1/Pe=1/Pt-1/Pf Where the total permeability of the system is denoted as Pt, the cell-free filter as Pf, and the endothelial cell layer alone as Pe. The total resistance of the system towards passage of a substance is composed of 2 resistances in series: that of the cell monolayer and that of the filter; permeability is estimated as 1/resistance [27]. […] Mass balance was determined based on the amount of compound recovered in the donor and receiver chamber at the end of the assay relative to the amount added to the donor chamber at time 0.

Q: With `COC(=O)CCNC(=O)[C@H](O)C(C)(C)COP(=O)(N[C@@H](C)C(=O)OC)Oc1ccccc1` (mixture of isomers) [Fosmetpantotenate] as the molecule, how does the half-life at 5 μM ([1]; mouse blood, 5 μM, 37°C, 60 min) read?
A: < 5 min

Q: And the “Percentage Remaining” value ([1]; 5 min)?
A: 1%

Q: What about the “Percentage Remaining” value ([1]; 15 min) of the same molecule?
A: 1%

Q: And the half-life at 5 μM ([2]; monkey blood, 5 μM, 37°C, 60 min)?
A: 41 min

Q: And the “Percentage Remaining” value ([2]; 5 min)?
A: 79% and 108%

Q: And the “Percentage Remaining” value ([2]; 15 min)?
A: 66% and 98%

Q: And the “Percentage Remaining” value ([2]; 30 min)?
A: 45% and 79%

Q: And the “Percentage Remaining” value ([2]; 60 min)?
A: 22% and 35%

Q: What about the “Percentage Remaining” value ([2]; 90 min) of the same molecule?
A: 15% and 35%

Q: What about the “Percentage Remaining” value ([2]; 120 min) of the same molecule?
A: 10% and 17%

Q: What about the half-life at 1 μM ([3]; pH 7.4, 1 μM, NADPH) of the same molecule?
A: 21 min

Q: What about the microsomal CLint at 1 μM ([3]; pH 7.4, read-out: intrinsic clearance) of the same molecule?
A: 134 µL/min/mg

Q: And the “blood-brain barrier permeability classification” value [4]?
A: permeable
